Like-named read-outs stand apart in the source and are kept apart here.
Columns and labels:
[1] = test system: H3K18Ac in HB-CLS-2 cells; assay: H3K18AC in-cell western (ICW) assay; assay type: cell-based; details: read-out: CREBBP ICW IC50
Procedure, shortened: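 In-cell western: after methanol fixation, blocking, overnight 4° C anti-H3K18Ac staining, then 800CW secondary plus DRAQ5 for DNA content, integrated intensities were scanned at 800 and 700 nm. Before this, compound exposure lasted 2 hr at 37° C in HB-CLS-2 cells plated 16–24 hours earlier. Values expressed as IC50 (μM).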

647V cells = assay: High throughput proliferation (HTP) assay; assay type: cell-based; details: read-out: CREBBP HTP IC50
Procedure, shortened: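 Proliferation IC50 (micromolar) derived from a 7-day CellTiter-Glo viable-cell readout in 647V cells exposed, in triplicate, to rising compound concentrations; cells grown in DMEM plus 15% heat-inactivated FBS at 37° C under 5% CO2.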

CREBBP (1084-1701) = target: T1, CREBBP (1084-1701) (Homo sapiens, UniProt Q92793); assay: Biochemical assay for CREBBP (1084-1701), SAMDI; details: read-out: CREBBP Biochemistry IC50
T1 construct: measured in the following biochemical assay using CREBBP (1084-1701); purchased
T1 sequence (Q92793 1084-1701): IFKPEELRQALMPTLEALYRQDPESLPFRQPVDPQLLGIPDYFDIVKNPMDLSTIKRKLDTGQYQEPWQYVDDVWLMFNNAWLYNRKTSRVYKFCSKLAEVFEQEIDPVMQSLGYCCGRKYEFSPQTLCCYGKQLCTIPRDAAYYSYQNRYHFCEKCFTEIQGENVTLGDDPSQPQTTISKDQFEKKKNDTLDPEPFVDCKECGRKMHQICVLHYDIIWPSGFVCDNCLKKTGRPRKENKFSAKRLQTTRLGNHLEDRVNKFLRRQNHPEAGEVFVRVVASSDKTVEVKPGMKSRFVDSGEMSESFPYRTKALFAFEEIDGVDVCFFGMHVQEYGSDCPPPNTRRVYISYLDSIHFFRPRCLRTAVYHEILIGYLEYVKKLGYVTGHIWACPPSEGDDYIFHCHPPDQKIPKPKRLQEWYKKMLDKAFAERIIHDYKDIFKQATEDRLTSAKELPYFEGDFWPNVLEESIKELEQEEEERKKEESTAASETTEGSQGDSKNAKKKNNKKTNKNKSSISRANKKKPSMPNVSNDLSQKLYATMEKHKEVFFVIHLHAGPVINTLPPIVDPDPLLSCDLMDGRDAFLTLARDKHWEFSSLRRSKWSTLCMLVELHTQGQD
Procedure, shortened: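 Acetyltransferase activity measured by SAMDI mass spectrometry after capture on biochip. Enzyme sat with compound 30 min at RT before acetyl-CoA and biotinylated H3 11-25 (K14R, K23R) peptide were added for 30 min at RT. Formic acid quench, bicarbonate neutralisation; IC50 values reported.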

EP300 (P300(1048-1664)) = target: T2, EP300 (P300(1048-1664)) (Homo sapiens, UniProt Q09472); assay: Biochemical assay for EP300, SAMDI; details: read-out: EP300 Biochemistry IC50
T2 construct: P300(1048-1664)
T2 sequence (Q09472 1048-1664): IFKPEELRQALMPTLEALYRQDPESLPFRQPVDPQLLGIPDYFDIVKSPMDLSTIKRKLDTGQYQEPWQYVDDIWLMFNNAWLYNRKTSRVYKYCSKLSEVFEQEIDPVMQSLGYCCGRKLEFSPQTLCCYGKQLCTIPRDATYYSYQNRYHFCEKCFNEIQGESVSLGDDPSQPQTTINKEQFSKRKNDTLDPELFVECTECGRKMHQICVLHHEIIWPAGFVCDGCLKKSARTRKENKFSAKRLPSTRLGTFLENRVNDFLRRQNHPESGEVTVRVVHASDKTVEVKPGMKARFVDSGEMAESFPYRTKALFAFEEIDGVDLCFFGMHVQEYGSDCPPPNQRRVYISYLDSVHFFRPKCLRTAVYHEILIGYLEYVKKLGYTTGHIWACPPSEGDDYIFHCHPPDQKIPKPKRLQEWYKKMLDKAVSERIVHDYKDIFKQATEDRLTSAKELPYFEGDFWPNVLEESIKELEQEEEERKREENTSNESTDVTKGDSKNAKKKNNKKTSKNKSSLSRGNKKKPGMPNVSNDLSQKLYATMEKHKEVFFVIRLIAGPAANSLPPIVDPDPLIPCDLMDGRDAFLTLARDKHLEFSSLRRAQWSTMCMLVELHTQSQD
Excerpt: The following example describes materials and methods relating to a biochemical assay for EP300. IC50 values (micromolar (μM)) are summarized in Table 1, Table 2, and Table 3 under the column labeled: “EP300 Biochemistry IC50 (micromolar).”

[2] = Homo sapiens, 647-V, high throughput proliferation
[3] = 2 h, H3K18Ac in HB-CLS-2 cells, 2 hrs compound incubation
[4] = Homo sapiens, 647-V, 168 h, 647V cells, day 7, CellTiter-Glo
[5] = Peptide #233, Acetyl-CoA, SAMDI mass spectrometry
[6] = P300(1048-1664), Peptide #233, Ac-CoA, SAMDI mass spectrometry

Row | SMILES | IC50 ([1]; H3K18Ac in-cell western) | IC50 (647V cells; [2]) | IC50 (CREBBP (1084-1701); SAMDI) | IC50 (EP300 (P300(1048-1664)); EP300, SAMDI) | IC50 (647V cells; high throughput proliferation) | IC50 [1, 3] | IC50 (647V cells; [4]) | IC50 (CREBBP (1084-1701); [5]) | IC50 (EP300 (P300(1048-1664)); [6]) | IC50 ([1]; H3K18Ac in-cell western, HB-CLS-2 cells) | IC50 (647V cells; Homo sapiens, 647-V, high throughput proliferation, 647V cells)
1 | CNc1[nH]nc2ccc(-c3nc(C(=O)N(C)Cc4cnc(C5CC5)n4C)c4cc(COC)ccc4n3)cc12 [Compound 616] | 102 nM | 160 nM | 25.1 nM | 14.4 nM |  |  |  |  |  |  | 
2 | CCn1ncc(CN(C)C(=O)c2cc(-c3ccc(NCCNC)c(OC)c3)nc3ccc(Cl)cc23)c1C [Compound 584] | 273 nM | 165 nM | 44.5 nM | 221 nM |  |  |  |  |  |  | 
3 | CCn1ncc(CN(C)C(=O)c2nc(-c3ccc(OCCCNC(=O)OC(C)(C)C)c(C)c3)nc3ccc(Cl)cc23)c1C [Compound 147] | 7000 nM |  | 470 nM | 7900 nM | 3100 nM |  |  |  |  |  | 
4 | CCn1ncc(CN(C)C(=O)c2cc(-c3cc4n[nH]cc4cn3)nc3ccc(Cl)cc23)c1C [Compound 437] | 74.5 nM | 119 nM | 7.82 nM | 5.2 nM |  |  |  |  |  |  | 
5 | CCn1ncc(CN(C)C(=O)c2nc(-c3ccc(OCCO)cc3Cl)nc3ccc(Cl)cc23)c1C [Compound 32] | 270 nM | 150 nM | 150 nM | 330 nM |  |  |  |  |  |  | 
6 | CCn1ncc(CN(C)C(=O)c2cc(-c3ccc(NCC4CN(C)CCO4)c(C)n3)nc3ccc(Cl)cc23)c1C (stereo not drawn) [Compound 628] | 3300 nM | 997 nM | 3630 nM | 1730 nM |  |  |  |  |  |  | 
7 | CCc1ncc(CN(C)C(=O)c2cc(-c3ccc(NCC(O)CNC)c(C)n3)nc3ccc(Cl)cc23)n1C (stereo not drawn) [Compound 571] | 428 nM | 118 nM | 25.4 nM | 11.1 nM |  |  |  |  |  |  | 
8 | CNCCNc1ccc(-c2cc(C(=O)N(C)Cc3cncn3C)c3cc(Cl)ccc3n2)nc1C [Compound 543] | 6820 nM | 2260 nM | 8540 nM | 8960 nM |  |  |  |  |  |  | 
9 | CCn1ncc(CN(C)C(=O)c2cc(-c3cc4c(N)n[nH]c4c(C)n3)nc3ccc(Cl)cc23)c1C [Compound 519] | 253 nM | 326 nM | 31.4 nM | 107 nM |  |  |  |  |  |  | 
10 | CCn1ncc(CN(C)C(=O)c2cc(-c3cc(N[C@@H]4CCNC4)cc(C)n3)nc3ccc(Cl)cc23)c1C [Compound 531] | 350 nM | 88.9 nM | 29.9 nM | 6.3 nM |  |  |  |  |  |  | 
11 | CCn1ncc(CN(C)C(=O)c2nc(-c3ccc(OCCCNC)cc3C)nc3ccc(Cl)cc23)c1C [Compound 33] | 270 nM | 180 nM | 68 nM | 53 nM |  |  |  |  |  |  | 
12 | CCc1noc(CN(C)C(=O)c2nc(-c3cc4c(NC)[nH]nc4cc3C)nc3ccc(Cl)cc23)c1C [Compound 615] | 29.1 nM | 19.5 nM | 9.75 nM | 3.1 nM |  |  |  |  |  |  | 
13 | CCc1ncc(CN(C)C(=O)c2nc(-c3cc(C(=O)NC)n(C)n3)nc3ccc(C4CC4)cc23)n1C [Compound 633] |  |  |  |  |  | 227 nM | 369 nM | 34.3 nM | 14.6 nM |  | 
14 | CCn1ncc(CN(C)C(=O)c2nc(-c3cc(Cl)cc(CNC)c3)nc3ccc(Cl)cc23)c1C [Compound 82] | 1200 nM | 580 nM | 100 nM | 460 nM |  |  |  |  |  |  | 
15 | CCn1ncc(CN(C)C(=O)c2nc(-c3nn(C)c(C(=O)NC)c3Cl)nc3ccc(Cl)cc23)c1C [Compound 448] | 14300 nM | 12600 nM | 48300 nM | 35500 nM |  |  |  |  |  |  | 
16 | CCc1ncc(CN(C)C(=O)c2cc(-c3cc(NCCNC)cc(OC)n3)nc3ccc(Cl)cc23)n1C [Compound 567] | 77.9 nM | 32 nM | 79.7 nM | 22.2 nM |  |  |  |  |  |  | 
17 | CCn1ncc(CN(C)C(=O)c2nc(-c3cc(Cl)c4c[nH]nc4c3)nc3ccc(COC)cc23)c1C [Compound 22] | 180 nM | 210 nM | 14 nM | 14 nM |  |  |  |  |  |  | 
18 | CCn1ncc(CN(C)C(=O)c2cc(-c3ccc(NCCNS(C)(=O)=O)c(C)n3)nc3ccc(Cl)cc23)c1C [Compound 529] | 137 nM | 238 nM | 20.7 nM | 10.4 nM |  |  |  |  |  |  | 
19 | CCn1ncc(CN(C)C(=O)c2cc(-c3ccc(NCC(=O)NC)c(C)n3)nc3ccc(Cl)cc23)c1C [Compound 395] |  |  | 37 nM | 37 nM |  |  |  |  |  | 270 nM | 410 nM
20 | CCn1ncc(CN(C)C(=O)c2cc(-c3ccc(NCCN(C)C)c(OC)c3)nc3ccc(Cl)cc23)c1C [Compound 585] | 332 nM | 177 nM | 104 nM | 903 nM |  |  |  |  |  |  | 
21 | CCn1ncc(CN(C)C(=O)c2cc(-c3cnc(NCCNC)c(C)n3)nc3ccc(Cl)cc23)c1C [Compound 525] | 260 nM | 313 nM | 54 nM | 142 nM |  |  |  |  |  |  | 
22 | CCn1ncc(CN(C)C(=O)c2cc(-c3ccc(OCCO)c(C)n3)nc3ccc(Cl)cc23)c1C [Compound 45] | 390 nM | 380 nM | 74 nM | 75 nM |  |  |  |  |  |  | 
23 | CCn1ncc(CN(C)C(=O)c2nc(-c3ccc(OCCNC(C)=O)cc3Cl)nc3ccc(Cl)cc23)c1C [Compound 56] | 630 nM | 520 nM | 280 nM | 580 nM |  |  |  |  |  |  | 
24 | CCn1ncc(CN(C)C(=O)c2nc(-c3ccc(OCCNC)c(Cl)c3)nc3ccc(C(F)F)cc23)c1C [Compound 441] | 269 nM | 216 nM | 50.3 nM | 36.7 nM |  |  |  |  |  |  | 
25 | CCn1ncc(CN(C)C(=O)c2nc(-c3cc(C)nc(NCCNC)c3)nc3ccc(Cl)cc23)c1C [Compound 8] | 78 nM | 42 nM | 33 nM | 26 nM |  |  |  |  |  |  | 
26 | CCc1ncc(CN(C)C(=O)c2nc(-c3cc(-c4ncc[nH]4)n(C)n3)nc3ccc(Cl)cc23)n1C [Compound 631] |  |  |  |  |  | 125 nM | 194 nM | 16.7 nM | 8.8 nM |  | 
27 | CCn1ncc(CN(C)C(=O)c2nc(-c3cc4c(N)nn(C)c4cc3C)nc3ccc(Cl)cc23)c1C [Compound 433] | 20000 nM | 2220 nM | 24900 nM | 12500 nM |  |  |  |  |  |  | 
